One test relates to SKBR3 cells. As to the kind of experiment: Anti-tumor cell proliferation activity of compound of formula (D-H), Cell-Titer Glo, SKBR3. It is filed as cell-based, human. The settings on record: Homo sapiens, SK-BR-3, 120 h, read-out: SKBR3 Antiproliferative activity IC50 (nM), SKBR3 cells, 5 days. How it is done: (§1) Cell culture: HCT116 cells and SKBR3 cells were cultured with a McCoy's 5a medium containing 10% fetal bovine serum+1% penicillin-streptomycin at 37° C. with 5% CO2, and OVCAR3 cells were cultured with a 1640 medium containing 20% fetal bovine serum+2 μg/mL bovine insulin+1% penicillin-streptomycin at 37° C. with 5% CO2. Cells at logarithmic growth phase were available for the experiment.
(§2) Cell proliferation activity test: The Cell-Titer Glo reagent was used to test the compound for inhibitory activity on proliferation of the three cell strains HCT116, SKBR3, and OVCAR3. HCT116 cells (1500 per well), SKBR3 cells (3000 per well), and OVCAR3 cells (5000 per well) were seeded on 96-well plates and incubated at 37° C. with 5% CO2 for 24 h. After a solution of the compound to be detected was added (the compound was dissolved in DMSO so that the compound concentration was 1 mM, then the compound was diluted to […] in DMSO at 9 concentrations in a 3-fold dilution, and 10 μL of the prepared compound solution was transferred to the 96-well plate so that the final concentration was 0-300 nM), the mixture was incubated at 37° C. with 5% CO2. HCT116 cells were cultured for 3 days, and SKBR3 cells and OVCAR3 cells were cultured for 5 days. The Cell-Titer Glo reagent was added and the cell activity was measured.
(§3) A negative control group and a positive control group were respectively used as Bottom and Top. The negative control group was not added with cells, only added with the culture medium in the same volume, and other operations were consistent with those of the experimental group. The positive control group was not added with the test drug, and other operations were consistent with those of the experimental group.
(§4) Data analysis: % Inhibition was calculated, and compound IC50 was fitted.
(§5) % Inhibition=1-100%×(Signal−Bottom)/(Top−Bottom).
(§6) Signal referred to the signal value of the experimental group, Bottom referred to the average signal value of the negative control group, and Top referred to the average signal value of the positive control group.

The next test relates to OVCAR3 cells. As to the kind of experiment: Anti-tumor cell proliferation activity of compound of formula (D-H), Cell-Titer Glo, OVCAR3. The class given is cell-based. The settings on record: Homo sapiens, OVCAR-3, 120 h. As for the experimental part: as §1, §2, §3, §4, §5, §6
For another test, the system named is HCT116 cells. As to the kind of experiment: Anti-tumor cell proliferation activity of compound of formula (D-H), Cell-Titer Glo, HCT116. It is filed as cell-based. The conditions noted are these: Homo sapiens, HCT-116, 72 h. As for the experimental part:
as §1, §2, §3, §4, §5, §6

Setting [1] is: read-out: OVCAR3 Antiproliferative activity IC50 (nM).
Setting [2] is: read-out: HCT116 Antiproliferative activity IC50 (nM), HCT116 cells, 3 days.

IC50 data for 16 molecules are collected here from patent US20250304717A1, “CAMPTOTHECIN DERIVATIVE AND LIGAND-DRUG CONJUGATE” (HAINAN SIMCERE ZAIMING PHARMACEUTICAL CO., LTD., priority 2022, published 2025).

The IC50 is the point on the concentration scale where inhibition reaches its midpoint.

Where two headings read alike, the source gives them in different places. A value given as a limit tells only on which side of the number the result lay.

Take `CC[C@@]1(O)C(=O)OCc2c1cc1n(c2=O)Cc2c-1nc1cc(F)c(Br)cc1c2CNC(=O)CO` [Compound 5, (S)-N-((9-bromo-4-ethyl-8-fluoro-4-hydroxy-3,14-dioxo-3,4,12,14-tetrahydro-1H-pyrano[3′,4′:6,7]indolizino[1,2-b]quinolin-11-yl)methyl)-2-hydroxyacetamide]: the IC50 in the test on SKBR3 cells was 3.3 nM. As for `CC[C@@]1(O)C(=O)OCc2c1cc1n(c2=O)Cc2c-1nc1cc(Cl)c(C)cc1c2CNC(=O)CO` [Compound 6, (S)-N-((8-chloro-4-ethyl-4-hydroxy-9-methyl-3,14-dioxo-3,4,12,14-tetrahydro-1H-pyrano[3′,4′:6,7]indolizino[1,2-b]quinolin-11-yl)methyl)-2-hydroxyacetamide], the IC50 in the test on OVCAR3 cells (setting [1]) stood at 2.1 nM; with SKBR3 cells, 4.8 nM. In the case of `CC[C@@]1(O)C(=O)OCc2c1cc1n(c2=O)Cc2c-1nc1cc(F)c(C)cc1c2CNC(=O)C1(O)CC1` [Compound 9, (S)-N-((4-ethyl-8-fluoro-4-hydroxy-9-methyl-3,14-dioxo-3,4,12,14-tetrahydro-1H-pyrano[3′,4′:6,7]indolizino[1,2-b]quinolin-11-yl)methyl)-1-hydroxycyclopropane-1-carboxamide], the values for the IC50 with HCT116 cells (setting [2]) and in the test with SKBR3 cells were under 10 nM and 2.1 nM, respectively. As to `CC[C@@]1(O)C(=O)OCc2c1cc1n(c2=O)Cc2c-1nc1cc(Cl)c(C)cc1c2CNC(=O)C1(O)CC1` [Compound 10, (S)-N-((8-chloro-4-ethyl-4-hydroxy-9-methyl-3,14-dioxo-3,4,12,14-tetrahydro-1H-pyrano[3′,4′:6,7]indolizino[1,2-b]quinolin-11-yl)methyl)-1-hydroxycyclopropane-1-carboxamide], the IC50 was under 10 nM in the test with HCT116 cells (setting [2]) and 2.3 nM with SKBR3 cells. Regarding `CC[C@@]1(O)C(=O)OCc2c1cc1n(c2=O)Cc2c-1nc1cc(Cl)c(C)cc1c2CNC(=O)C(O)C1CC1` (stereo partly drawn) [Compound 11, N—(((S)-8-chloro-4-ethyl-4-hydroxy-9-methyl-3,14-dioxo-3,4,12,14-tetrahydro-1H-pyrano[3′,4′:6,7]indolizino[1,2-b]quinolin-11-yl)methyl)-2-cyclopropyl-2-hydroxyacetamide], the IC50 in the test with SKBR3 cells came to 3.2 nM. Regarding `CC[C@@]1(O)C(=O)OCc2c1cc1n(c2=O)Cc2c-1nc1ccc3c(c1c2CNC(=O)C(O)C1CC1)CCC3` (stereo partly drawn) [Compound 13, 2-cyclopropyl-N—(((S)-8-ethyl-8-hydroxy-9,12-dioxo-2,3,8,9,12,14-hexahydro-1H,11H-cyclopenta[f]pyrano[3′,4′:6,7]indolizino[1,2-b]quinolin-15-yl)methyl)-2-hydroxyacetamide], the IC50 in the test with HCT116 cells (setting [2]) is under 10 nM; with OVCAR3 cells (setting [1]) it was 0.7 nM. Turning to `CC[C@@]1(O)C(=O)OCc2c1cc1n(c2=O)Cc2c-1nc1cc(F)c(Cl)c(F)c1c2CNC(=O)C1(O)CC1` [Compound 16, (S)-N-((9-chloro-4-ethyl-8,10-difluoro-4-hydroxy-3,14-dioxo-3,4,12,14-tetrahydro-1H-pyrano[3′,4′:6,7]indolizino[1,2-b]quinolin-11-yl)methyl)-1-hydroxycyclopropane-1-carboxamide], the values for the half-inhibitory concentration (IC50) in the test on HCT116 cells (setting [2]) and with SKBR3 cells were under 10 nM and 2.3 nM, respectively.

With `CC[C@@]1(O)C(=O)OCc2c1cc1n(c2=O)Cc2c-1nc1cc(Cl)c(C)cc1c2CNC(=O)C(C)(C)O` [Compound 17, (S)-N-((8-chloro-4-ethyl-4-hydroxy-9-methyl-3,14-dioxo-3,4,12,14-tetrahydro-1H-pyrano[3′,4′:6,7]indolizino[1,2-b]quinolin-11-yl)methyl)-2-hydroxy-2-methylpropanamide], the concentration for half-maximal inhibition (IC50) was under 10 nM in the test with HCT116 cells (setting [2]) and 2.7 nM in the test on SKBR3 cells. As for `CC[C@@]1(O)C(=O)OCc2c1cc1n(c2=O)Cc2c-1nc1cc(Cl)c(C)cc1c2CNC(=O)C(O)C(C)C` (stereo partly drawn) [Compound 18, N—(((S)-8-chloro-4-ethyl-4-hydroxy-9-methyl-3,14-dioxo-3,4,12,14-tetrahydro-1H-pyrano[3′,4′:6,7]indolizino[1,2-b]quinolin-11-yl)methyl)-2-hydroxy-3-methylbutanamide], the figures for the half-maximal inhibitory concentration (IC50) with HCT116 cells (setting [2]) and with SKBR3 cells were 10 to 100 nM and 5.1 nM, respectively.

`[2H]C1([2H])Oc2cc3nc4c(c(CNC(=O)[C@@H](O)C5CC5)c3cc2O1)Cn1c-4cc2c(c1=O)COC(=O)[C@]2(O)CC` [Compound 19-P1, (S)-2-cyclopropyl-N—(((S)-7-ethyl-7-hydroxy-8,11-dioxo-7,8,11,13-tetrahydro-10H-[1,3]dioxolo[14,5-g]pyrano[3′,4′:6,7]indolizino[1,2-b]quinolin-14-yl-2,2-d2)methyl)-2-hydroxyacetamide]: the results for the IC50 in the test with HCT116 cells (setting [2]) and with OVCAR3 cells (setting [1]) were under 10 nM and 0.6 nM, respectively. For `[2H]C1([2H])Oc2cc3nc4c(c(CNC(=O)[C@@H](O)C5CC5)c3cc2O1)Cn1c-4cc2c(c1=O)COC(=O)[C@]2(O)CC` [Compound 19-P2, 2-cyclopropyl-N—(((S)-7-ethyl-7-hydroxy-8,11-dioxo-7,8,11,13-tetrahydro-10H-[1,3]dioxolo[4,5-g]pyrano[3′,4′:6,7]indolizino[1,2-b]quinolin-14-yl-2,2-d2)methyl)-2-hydroxyacetamide], the 50% inhibitory concentration (IC50) with HCT116 cells (HCT116 cells, 3 days, read-out: HCT116 Antiproliferative activity IC50) was under 10 nM; with OVCAR3 cells (OVCAR3 cells, 5 days, read-out: OVCAR3 Antiproliferative activity IC50), 1 nM. Take `CC[C@@]1(O)C(=O)OCc2c1cc1n(c2=O)Cc2c-1nc1ccc3occc3c1c2CNC(=O)CO` [Compound 20, (S)-N-((8-ethyl-8-hydroxy-9,12-dioxo-8,9,12,14-tetrahydro-11H-furo[3,2-f]pyrano [3′,4′:6,7]indolizino[1,2-b]quinolin-15-yl)methyl)-2-hydroxyacetamide]: the IC50 in the test with HCT116 cells (setting [2]) was 10 to 100 nM; in the test on SKBR3 cells, 10.5 nM. Regarding `CC[C@@]1(O)C(=O)OCc2c1cc1n(c2=O)Cc2c-1nc1cc3c(c(Cl)c1c2CNC(=O)C(O)C1CC1)OCO3` (stereo partly drawn) [Compound 30, N—(((S)-15-chloro-7-ethyl-7-hydroxy-8,11-dioxo-7,8,11,13-tetrahydro-10H-[1,3]dioxolo[4,5-g]pyrano[3′,4′:6,7]indolizino[1,2-b]quinolin-14-yl)methyl)-2-cyclopropyl-2-hydroxyacetamide], the IC50 is under 10 nM with HCT116 cells (setting [2]) and 0.4 nM with OVCAR3 cells (setting [1]). As to `CC[C@@]1(O)C(=O)OCc2c1cc1n(c2=O)Cc2c-1nc1cc3c(c(Cl)c1c2CNC(=O)CO)OCO3` [Compound 31, (S)-N-((15-chloro-7-ethyl-7-hydroxy-8,11-dioxo-7,8,11,13-tetrahydro-10H-[1,3]dioxolo[4,5-g]pyrano[3′,4′:6,7]indolizino[1,2-b]quinolin-14-yl)methyl)-2-hydroxyacetamide], the IC50 is under 10 nM in the test with HCT116 cells (setting [2]) and 0.2 nM with OVCAR3 cells (setting [1]). On to `CC[C@@]1(O)C(=O)OCc2c1cc1n(c2=O)Cc2c-1nc1cc(Cl)c3c(c1c2CNC(=O)CO)CCC3` [Compound 33, (S)-N-((4-chloro-8-ethyl-8-hydroxy-9,12-dioxo-2,3,8,9,12,14-hexahydro-1H,11H-cyclopenta[f]pyrano[3′,4′:6,7]indolizino[1,2-b]quinolin-15-yl)methyl)-2-hydroxyacetamide], for which the half-inhibitory concentration (IC50) is under 10 nM in the test on HCT116 cells (setting [2]) and 0.8 nM with OVCAR3 cells (setting [1]). For the molecule `CC[C@@]1(O)C(=O)OCc2c1cc1n(c2=O)Cc2c-1nc1cc(Cl)c3c(c1c2CNC(=O)C(O)C1CC1)CCC3` (stereo partly drawn) [Compound 34, N—(((S)-4-chloro-8-ethyl-8-hydroxy-9,12-dioxo-2,3,8,9,12,14-hexahydro-1H,11H-cyclopenta[f]pyrano[3′,4′:6,7]indolizino[1,2-b]quinolin-15-yl)methyl)-2-cyclopropyl-2-hydroxyacetamide], the IC50 in the test with HCT116 cells (setting [2]) was under 10 nM; in the test with OVCAR3 cells (setting [1]), 0.6 nM.
